Laboratory results from ChEMBL document CHEMBL1201862, “PubChem BioAssay data set” (2004).
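Five concentrations, 48 hours, 96-well plates. GI50 marks 50% less growth.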 Active and inactive are the calls of the source. Rule as the data show it: active = GI50 up to about 1.1 µM and inactive = higher.

Legend:
Test in all cases: inhibition of tumour cell growth, NCI panel, 48 h
CAKI-1 = tested on: CAKI-1
HCC 2998 = tested on: HCC 2998
HOP-92 = tested on: HOP-92
IGROV-1 = tested on: IGROV-1
MCF7 = tested on: MCF7
MDA-MB-435 = tested on: MDA-MB-435
MOLT-4 = tested on: MOLT-4
NCI-H23 = tested on: NCI-H23
NCI/ADR-RES = tested on: NCI/ADR-RES
OVCAR-3 = tested on: OVCAR-3
OVCAR-5 = tested on: OVCAR-5
OVCAR-8 = tested on: OVCAR-8
PC-3 = tested on: PC-3
RPMI-8226 = tested on: RPMI-8226
SF-268 = tested on: SF-268
SK-MEL-28 = tested on: SK-MEL-28
SK-MEL-5 = tested on: SK-MEL-5
SN12C = tested on: SN12C
SNB-19 = tested on: SNB-19
TK-10 = tested on: TK-10

Measured: GI50

Cc1ccccc1OC(C)C(=O)NN1C(=O)CC(=O)N(c2ccc(Cl)cc2)C1=S (stereo not given)
inactive: CAKI-1 37.8 µM | HCC 2998 27.4 µM | HOP-92 19.3 µM | IGROV-1 49.9 µM | MCF7 31.3 µM | MDA-MB-435 49.3 µM | MOLT-4 30.5 µM | NCI-H23 31 µM | NCI/ADR-RES 29.4 µM | OVCAR-3 37.1 µM | OVCAR-5 61.2 µM | OVCAR-8 34.1 µM | PC-3 31.9 µM | RPMI-8226 34.4 µM | SF-268 50.9 µM | SK-MEL-28 41.4 µM | SK-MEL-5 25.1 µM | SN12C 34.3 µM | SNB-19 61.1 µM | TK-10 44 µM

NC(=O)CSc1nc2ccccc2c(=O)n1N
inactive: CAKI-1 > 100 µM | HCC 2998 > 100 µM | HOP-92 > 100 µM | IGROV-1 > 100 µM | MCF7 > 100 µM | MDA-MB-435 > 100 µM | MOLT-4 > 100 µM | NCI-H23 > 100 µM | NCI/ADR-RES > 100 µM | OVCAR-3 > 100 µM | OVCAR-5 > 100 µM | OVCAR-8 > 100 µM | PC-3 > 100 µM | RPMI-8226 > 100 µM | SF-268 > 100 µM | SK-MEL-28 > 100 µM | SK-MEL-5 > 100 µM | SN12C > 100 µM | SNB-19 > 100 µM | TK-10 > 100 µM

COc1cc2c(cc1O)CCN(C)[C@H]2Cc1ccc(Oc2c(O)c(OC)cc3c2C[C@H]2c4c(c(OC)c(OC)c(OC)c4-3)CCN2C)cc1 [THALIFABERIDINE]
inactive: CAKI-1 5.06 µM | HCC 2998 3.08 µM | HOP-92 1.69 µM | IGROV-1 5.43 µM | MCF7 5.13 µM | MDA-MB-435 3.51 µM | MOLT-4 3 µM | NCI-H23 6.41 µM | NCI/ADR-RES 5.56 µM | OVCAR-3 5.36 µM | OVCAR-5 7.5 µM | OVCAR-8 4.16 µM | PC-3 4.31 µM | RPMI-8226 1.51 µM | SF-268 5.66 µM | SK-MEL-28 6.56 µM | SK-MEL-5 2.9 µM | SN12C 5.35 µM | SNB-19 6.34 µM | TK-10 6.11 µM

Oc1ccccc1/C=N/c1ccc(Oc2ccc(Cl)cc2)c(Cl)c1
inactive: CAKI-1 23.2 µM | HCC 2998 18.5 µM | HOP-92 20 µM | IGROV-1 22.7 µM | MCF7 41.7 µM | MDA-MB-435 28.3 µM | MOLT-4 30.1 µM | NCI-H23 18.6 µM | NCI/ADR-RES 19.3 µM | OVCAR-3 15 µM | OVCAR-5 26.1 µM | OVCAR-8 19.9 µM | PC-3 20.9 µM | RPMI-8226 21.5 µM | SF-268 17.9 µM | SK-MEL-28 25 µM | SK-MEL-5 20.8 µM | SN12C 21.8 µM | SNB-19 17.4 µM | TK-10 39.5 µM

OCC1OC(N2CCN(C3OC(CO)C(O)C(O)C3O)CC2)C(O)C(O)C1O (stereo not given)
inactive: CAKI-1 > 100 µM | HCC 2998 > 100 µM | HOP-92 > 100 µM | IGROV-1 > 100 µM | MCF7 > 100 µM | MDA-MB-435 > 100 µM | MOLT-4 > 100 µM | NCI-H23 > 100 µM | NCI/ADR-RES > 100 µM | OVCAR-3 > 100 µM | OVCAR-5 > 100 µM | OVCAR-8 > 100 µM | PC-3 > 100 µM | RPMI-8226 > 100 µM | SF-268 > 100 µM | SK-MEL-28 > 100 µM | SK-MEL-5 > 100 µM | SN12C > 100 µM | SNB-19 > 100 µM | TK-10 > 100 µM

C[N+]1(CCN[N+]2(C)CCCCC2)CCc2ccccc2C1 (stereo not given)
inactive: CAKI-1 > 100 µM | HCC 2998 > 100 µM | HOP-92 > 100 µM | IGROV-1 > 100 µM | MCF7 > 100 µM | MDA-MB-435 > 100 µM | MOLT-4 > 100 µM | NCI-H23 > 100 µM | NCI/ADR-RES > 100 µM | OVCAR-3 > 100 µM | OVCAR-5 > 100 µM | OVCAR-8 > 100 µM | PC-3 > 100 µM | RPMI-8226 > 100 µM | SF-268 > 100 µM | SK-MEL-28 > 100 µM | SK-MEL-5 > 100 µM | SN12C > 100 µM | SNB-19 > 100 µM | TK-10 > 100 µM

CC1CNC(c2ccc3c(c2)Cc2cc(C4=NC(C)CN4)ccc2-3)=N1 (stereo not given)
inactive: CAKI-1 > 100 µM | HCC 2998 18.2 µM | HOP-92 > 100 µM | IGROV-1 > 100 µM | MCF7 17.7 µM | MDA-MB-435 25.8 µM | MOLT-4 37.8 µM | NCI-H23 37.2 µM | NCI/ADR-RES > 100 µM | OVCAR-3 20.8 µM | OVCAR-5 > 100 µM | OVCAR-8 37.2 µM | PC-3 43.8 µM | RPMI-8226 36.6 µM | SF-268 26.1 µM | SK-MEL-28 87.1 µM | SK-MEL-5 71.8 µM | SN12C 48.1 µM | SNB-19 36.6 µM | TK-10 > 100 µM
